Measurements as given in patent US9079913B2, “Spiro-oxindole MDM2 antagonists” (The Regents of the University of Michigan, priority 2009, dated 2015).
Several values for one entry are separate records, joined by “and”; a condition that tells them apart may be missing. Identical values can stand only once.

What was measured:
[1] = Metabolites in rat plasma; type: in vivo; conditions: rats, MI-219 i.v. 5 mg/kg
Procedure: Plasma was harvested by centrifuging the blood at 13000 rpm for 5 min at 4° C. and stored frozen at −80±10° C. until analysis.
Based on the similarities and difference among their mass spectra, the possible fragmentation pathways of protonated MI-219 and several lead compounds were proposed. Three characteristic product ions were selected to generate 240 ion channels for MRM screening by using Metabolite ID software (Applied Biosystems), including 40 common biotransformation processes. To search all the metabolites, two other scan modes, EMS full scan and precursor scan were also conducted. Only the components detected in the sample and absent in all the control samples were regarded as possible metabolites. To identify the possible metabolites, both the sample and controls were injected on the LC-MS for EPI and MS^3 scans to obtain their MS^2 and MS^3 spectra.

[2] = Pharmacokinetic studies in ICR mice; type: in vivo; design: Measured concentrations in the plasma samples: unit not given here; conditions: for Measured concentrations in the plasma samples: single i.v. dose 10 mg/kg; for Plasma Concentrations: single p.o dose 50 mg/kg
[3] = In vitro microsomal stability, human; type: in vitro ADME; conditions: for Microsomal stability, % remaining: Human microsomes
[4] = Pharmacokinetic studies in Cynomolgus monkeys; type: in vivo; conditions: for AUC(0-t): animals and MEAN
[5] = male Cynomolgus monkeys, IV (10 mg/kg)
[6] = male Cynomolgus monkeys, IV (10 mg/kg), mean
[7] = male Cynomolgus monkeys, Oral (50 mg/kg)
[8] = male Cynomolgus monkeys, Oral (50 mg/kg), mean

## MI-219
[1]
  elimination rate from rat plasma (in words): similar
[2]; 50 mg/kg oral dosing
  AUC: 8469 ± 2381 ng·h/mL
[2]; p.o. 50 mg/kg
  AUC 0→9 h: 26839 ng·h/mL and 16158 ng·h/mL and 14622 ng·h/mL
  F: 76.7% and 46.2% and 41.8% and 54.9 ± 19.0%
  Kel: 0.37 and 0.69
  MRT: 2.5813 h and 2.043 h and 2.2585 h
  Tmax: 2 h
[2]; p.o. 50 mg/kg, groups and Mean ± SD
  Cmax: 10399 ng/mL and 9201 ng/mL and 9082 ng/mL and 9561 ± 728 ng/mL
[2]; p.o. 50 mg/kg, mean
  AUC 0→9 h: 19206 ± 6655 ng·h/mL
  Kel: 0.47 ± 0.19
  MRT: 2.29 ± 0.27 h
[2]; 5 min, groups and Mean ± SD, mean
  Measured concentrations in the plasma samples: 18041 ± 3799
[2]; 15 min, mean
  Measured concentrations in the plasma samples: 5823 ± 701
  Plasma Concentrations: 2043 ± 772 ng/mL
[2]; 30 min, mean
  Measured concentrations in the plasma samples: 3570 ± 871
[2]; 45 min, mean
  Measured concentrations in the plasma samples: 1731 ± 429
[2]; 1 h, mean
  Measured concentrations in the plasma samples: 1223 ± 141
[2]; 24 h
  Measured concentrations in the plasma samples: BLQ
  Plasma Concentrations: Beyond
[2]; 15 min
  Plasma Concentrations: 2927 ng/mL and 1700 ng/mL and 1503 ng/mL
[2]; 2 h
  Plasma Concentrations: 10399 ng/mL and 9201 ng/mL and 5808 ng/mL
[2]; 2 h, mean
  Plasma Concentrations: 8469 ± 2381 ng/mL
[2]; 5 h
  Plasma Concentrations: 522 ng/mL and 277 ng/mL and 334 ng/mL
[2]; 5 h, mean
  Plasma Concentrations: 378 ± 128 ng/mL
[3]; 0 min
  Microsomal stability, % remaining: 100.00%
[3]; 5 min
  Microsomal stability, % remaining: 78.76%
[3]; 10 min
  Microsomal stability, % remaining: 58.19%
[3]; 15 min
  Microsomal stability, % remaining: 46.46%
[3]; 30 min
  Microsomal stability, % remaining: 26.46%
[3]; 45 min
  Microsomal stability, % remaining: 20.88%
[3]; 60 min
  Microsomal stability, % remaining: 11.86%
[3]; human liver microsomes
  microsomal stability (in words): metabolized fairly rapidly
[4]; Cynomolgus Monkeys
  oral bioavailability in monkeys (in words): orally bioavailable
[4]; male Cynomolgus monkeys, IV 10 mg/kg, time point 0.083, animals and Mean
  Plasma Concentration: 15043.60 ng/mL and 18669.25 ng/mL
[4]; male Cynomolgus monkeys, IV 10 mg/kg, time point 0.083, animals and Mean, mean
  Plasma Concentration: 16856.43 ng/mL
[4]; male Cynomolgus monkeys, IV 10 mg/kg, time point 0.1
  Plasma Concentration: 18416.30 ng/mL
[4]; male Cynomolgus monkeys, IV 10 mg/kg, time point 0.25
  Plasma Concentration: 4144.21 ng/mL and 4818.06 ng/mL and 6877.15 ng/mL
[4]; male Cynomolgus monkeys, IV 10 mg/kg, time point 0.25, mean
  Plasma Concentration: 5279.81 ng/mL
[4]; male Cynomolgus monkeys, IV 10 mg/kg, time point 0.5
  Plasma Concentration: 2188.67 ng/mL and 3577.55 ng/mL and 3536.46 ng/mL
[4]; male Cynomolgus monkeys, IV 10 mg/kg, time point 0.5, mean
  Plasma Concentration: 3100.89 ng/mL
[4]; male Cynomolgus monkeys, IV 10 mg/kg, time point 1
  Plasma Concentration: 1564.10 ng/mL and 2277.17 ng/mL and 2483.63 ng/mL
[4]; male Cynomolgus monkeys, IV 10 mg/kg, time point 1, mean
  Plasma Concentration: 2108.30 ng/mL
[4]; male Cynomolgus monkeys, IV 10 mg/kg, time point 2
  Plasma Concentration: 985.23 ng/mL and 1277.08 ng/mL and 1539.44 ng/mL
[4]; male Cynomolgus monkeys, IV 10 mg/kg, time point 2, mean
  Plasma Concentration: 1267.25 ng/mL
[4]; male Cynomolgus monkeys, IV 10 mg/kg, time point 3
  Plasma Concentration: 1230.40 ng/mL and 691.83 ng/mL and 834.00 ng/mL
[4]; male Cynomolgus monkeys, IV 10 mg/kg, time point 3, mean
  Plasma Concentration: 918.74 ng/mL
[4]; male Cynomolgus monkeys, IV 10 mg/kg, time point 4
  Plasma Concentration: 348.97 ng/mL and 582.63 ng/mL and 562.45 ng/mL
[4]; male Cynomolgus monkeys, IV 10 mg/kg, time point 4, mean
  Plasma Concentration: 498.02 ng/mL
[4]; male Cynomolgus monkeys, IV 10 mg/kg, time point 6
  Plasma Concentration: 246.12 ng/mL and 211.39 ng/mL and 324.99 ng/mL
[4]; male Cynomolgus monkeys, IV 10 mg/kg, time point 6, mean
  Plasma Concentration: 260.83 ng/mL
[4]; male Cynomolgus monkeys, IV 10 mg/kg, time point 8
  Plasma Concentration: 180.91 ng/mL and 115.94 ng/mL and 202.16 ng/mL
[4]; male Cynomolgus monkeys, IV 10 mg/kg, time point 8, mean
  Plasma Concentration: 166.34 ng/mL
[4]; male Cynomolgus monkeys, IV 10 mg/kg, time point 24
  Plasma Concentration: 5.91 ng/mL and 8.00 ng/mL and 8.34 ng/mL
[4]; male Cynomolgus monkeys, IV 10 mg/kg, time point 24, mean
  Plasma Concentration: 7.42 ng/mL
[4]; [5]
  AUC(0-∞): 11647.87 ng·h/mL and 13703.99 ng·h/mL and 10300.28 ng·h/mL
  CLz: 14.3 mL/min/kg and 12.2 mL/min/kg and 16.2 mL/min/kg
  Cmax: 18669.25 ng/mL and 18416.30 ng/mL and 15043.60 ng/mL
  MRT(0-∞): 2.12 h and 2.44 h and 2.68 h
  T1/2: 3.25 h and 3.43 h and 3.38 h
  Vz: 4.03 L/kg and 3.62 L/kg and 4.73 L/kg
  AUC(0-t): 11610.30 ng·h/mL and 13662.84 ng·h/mL and 10271.39 ng·h/mL
[4]; [6]
  AUC(0-t): 11848.18 ng·h/mL
  AUC(0-∞): 11884.05 ng·h/mL
  CLz: 14.2 mL/min/kg
  Cmax: 17376.38 ng/mL
  MRT(0-∞): 2.41 h
  T1/2: 3.35 h
  Vz: 4.12 L/kg
[4]; [7]
  MRT(0-∞): 6.25 h and 6.38 h and 5.57 h
  T1/2: 3.03 h and 2.52 h and 3.72 h
  Tmax: 4.00 h and 3.00 h and 3.33 h
[4]; [8]
  MRT(0-∞): 6.06 h
  T1/2: 3.09 h
[4]; male Cynomolgus monkeys, PO 50 mg/kg, time point 1
  Plasma Concentration: 192.53 ng/mL and 186.66 ng/mL and 241.02 ng/mL
[4]; male Cynomolgus monkeys, PO 50 mg/kg, time point 1, mean
  Plasma Concentration: 206.74 ng/mL
